US20260258032A1, “TYROSINE KINASE 2 INHIBITORS AND USES THEREOF” (BIOGEN MA INC., priority 2022, published 2026)
Where a name gives a salt, the structure may show the parent alone.

Legend:
[1] = tested on: Tyk2 kinase activity on STAT4; experiment: pSTAT4 cell assay (MSD, NK92 cells); assay type: cell-based; settings: compounds 1 hr, stimulated 15 minutes
Summary of the method: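 Serum-starved NK92 cells, which natively express Tyk2 and STAT4, were pretreated for 1 h with a 10-point 4-fold dilution series from 10 μM. They were then stimulated with 30 ng/mL IL2 for 15 min. Phospho-STAT in lysates was quantified by MSD with anti-STAT4 antibodies, and IC50 was obtained from 4-parameter logistic fits.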

[2] = target: T1, JH2 domain of human Tyk2 (Homo sapiens, UniProt P29597); experiment: JH2 biochemical assay (TR-FRET probe displacement); assay type: binding; settings: JH2 biochemical assay
T1 construct: 10×His-tagged TYK2 JH2 domain (amino acid 575-876)
T1 sequence (P29597 575-876): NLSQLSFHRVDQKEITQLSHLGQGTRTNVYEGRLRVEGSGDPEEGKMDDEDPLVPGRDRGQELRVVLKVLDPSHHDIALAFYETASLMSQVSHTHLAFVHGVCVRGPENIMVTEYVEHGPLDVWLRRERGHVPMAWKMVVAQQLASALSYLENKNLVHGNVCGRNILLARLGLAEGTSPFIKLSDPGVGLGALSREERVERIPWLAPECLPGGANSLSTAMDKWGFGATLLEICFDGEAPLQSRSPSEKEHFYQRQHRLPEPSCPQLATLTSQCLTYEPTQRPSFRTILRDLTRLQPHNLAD
Summary of the method: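 10×His-tagged human TYK2 JH2 (aa 575-876, 2 nM) incubated 60 min with 2 nM fluorescent probe, 0.1 nM Tb anti-His antibody and compound (10-point 3-fold series from […] top). TR-FRET 520/495 nm ratio, falling with probe displacement, normalized and fitted to a 4-parameter logistic for IC50.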

Row | Structure (SMILES) | IC50 [1] [nM] | IC50 [2] [nM]
1 | CCc1cc(N2CC3(CC3)c3cnc(NC(N)=O)cc32)nc(C(C)(F)F)n1 [Example 309, 1-(1′-(2-(1,1-difluoroethyl)-6-ethylpyrimidin-4-yl)-1′,2′-dihydrospiro[cyclopropane-1,3′-pyrrolo[3,2-c]pyridin]-6′-yl)urea] | ≤ 10 | ≤ 10
2 | CC(=O)Nc1cc2c(cn1)C1(CC1)CN2c1cc(-c2cnn(C)c2F)nc(C(C)(F)F)n1 [Example 310, N-(1′-(2-(1,1-difluoroethyl)-6-(5-fluoro-1-methyl-1H-pyrazol-4-yl)pyrimidin-4-yl)-1′,2′-dihydrospiro[cyclopropane-1,3′-pyrrolo[3,2-c]pyridin]-6′-yl)acetamide] | 10 to 100 | ≤ 10
3 | CCc1cc(N2CC3(CC3)c3cnc(NC(=O)OC)cc32)nc(C(C)(F)F)n1 [Example 311, Methyl (1′-(2-(1,1-difluoroethyl)-6-ethylpyrimidin-4-yl)-1′,2′-dihydrospiro[cyclopropane-1,3′-pyrrolo[3,2-c]pyridin]-6′-yl)carbamate trifluoroacetate] | 10 to 100 | ≤ 10
4 | CC(=O)Nc1cc2c(cn1)C1(CC1)CN2c1cc(C)nc(C(C)(C)F)n1 [Example 312, N-(1′-(2-(2-fluoropropan-2-yl)-6-methylpyrimidin-4-yl)-1′,2′-dihydrospiro[cyclopropane-1,3′-pyrrolo[3,2-c]pyridin]-6′-yl)acetamide] | 10 to 100 | ≤ 10
5 | COc1cccc(N2CC3(CC3)c3cnc(NC(C)=O)cc32)n1 [Example 313, N-(1′-(6-methoxypyridin-2-yl)-1′,2′-dihydrospiro[cyclopropane-1,3′-pyrrolo[3,2-c]pyridin]-6′-yl)acetamide] | ≥ 1000 | 10 to 100
6 | CCc1cc(N2CC3(CC3)c3cnc(NC(C)=O)cc32)nc(C)n1 [Example 314, N-(1′-(6-ethyl-2-methylpyrimidin-4-yl)-1′,2′-dihydrospiro[cyclopropane-1,3′-pyrrolo[3,2-c]pyridin]-6′-yl)acetamide] | ≥ 1000 | 10 to 100
7 | COCC(F)(F)c1cc(C)cc(N2CC3(CC3)c3cnc(NC(C)=O)cc32)n1 [Example 315, N-(1′-(6-(1,1-difluoro-2-methoxyethyl)-4-methylpyridin-2-yl)-1′,2′-dihydrospiro[cyclopropane-1,3′-pyrrolo[3,2-c]pyridin]-6′-yl)acetamide trifluoroacetate] | ≥ 1000 | 10 to 100
8 | CC(=O)Nc1cc2c(cn1)C1(CC1)CN2c1cc(C)cc(C(F)(F)CF)n1 [Example 316, N-(1′-(4-methyl-6-(1,1,2-trifluoroethyl)pyridin-2-yl)-1′,2′-dihydrospiro[cyclopropane-1,3′-pyrrolo[3,2-c]pyridin]-6′-yl)acetamide trifluoroacetate] | 10 to 100 | ≤ 10
9 | COC1CC(c2nc(C)cc(N3CC4(CC4)c4cnc(NC(C)=O)cc43)n2)C1 (stereo not drawn) [Example 317, N-(1′-(2-(3-methoxycyclobutyl)-6-methylpyrimidin-4-yl)-1′,2′-dihydrospiro[cyclopropane-1,3′-pyrrolo[3,2-c]pyridin]-6′-yl)acetamide] | 100 to 1000 | ≤ 10
10 | CC(=O)Nc1cc2c(cn1)C1(CC1)CN2c1cc(C)nc(C23COC(C)(C2)C3)n1 [Example 318, N-(1′-(6-methyl-2-(1-methyl-2-oxabicyclo[2.1.1]hexan-4-yl)pyrimidin-4-yl)-1′,2′-dihydrospiro[cyclopropane-1,3′-pyrrolo[3,2-c]pyridin]-6′-yl)acetamide] | ≥ 1000 | 10 to 100
11 | CC(=O)Nc1cc2c(cn1)C1(CC1)CN2c1cc(C)nc(CCS(C)(=O)=O)n1 [Example 319, N-(1′-(6-methyl-2-(2-(methylsulfonyl)ethyl)pyrimidin-4-yl)-1′,2′-dihydrospiro[cyclopropane-1,3′-pyrrolo[3,2-c]pyridin]-6′-yl)acetamide] | ≥ 1000 | 10 to 100
12 | CC(=O)Nc1cc2c(cn1)C1(CC1)CN2c1cc(C)nc(C23COC(C2)C3)n1 [Example 320, N-(1′-(2-(2-oxabicyclo[2.1.1]hexan-4-yl)-6-methylpyrimidin-4-yl)-1′,2′-dihydrospiro[cyclopropane-1,3′-pyrrolo[3,2-c]pyridin]-6′-yl)acetamide] | 10 to 100 | ≤ 10
13 | CCc1cc(N2CC3(CC3)c3cnc(NC(C)=O)cc32)nc(C2CCOC2)n1 (stereo not drawn) [Example 321, N-(1′-(6-ethyl-2-(tetrahydrofuran-3-yl)pyrimidin-4-yl)-1′,2′-dihydrospiro[cyclopropane-1,3′-pyrrolo[3,2-c]pyridin]-6′-yl)acetamide trifluoroacetate] | 10 to 100 | ≤ 10
14 | COCC(F)(F)c1nccc(N2CC3(CC3)c3cnc(NC(C)=O)cc32)n1 [Example 323, N-(1′-(2-(1,1-difluoro-2-methoxyethyl)pyrimidin-4-yl)-1′,2′-dihydrospiro[cyclopropane-1,3′-pyrrolo[3,2-c]pyridin]-6′-yl)acetamide] | 100 to 1000 | 100 to 1000
15 | CCC(C)(O)CCc1cc(N2CC3(CC3)c3cnc(NC(C)=O)cc32)nc(C(C)(F)F)n1 (stereo not drawn) [Example 324, N-(1′-(2-(1,1-difluoroethyl)-6-(3-hydroxy-3-methylpentyl)pyrimidin-4-yl)-1′,2′-dihydrospiro[cyclopropane-1,3′-pyrrolo[3,2-c]pyridin]-6′-yl)acetamide] | 10 to 100 | ≤ 10
16 | CC(=O)Nc1cc2c(cn1)C1(CC1)CN2c1cc(CCCOC(C)(C)C)nc(C(C)(F)F)n1 [Example 325, N-(1′-(6-(3-(tert-butoxy)propyl)-2-(1,1-difluoroethyl)pyrimidin-4-yl)-1′,2′-dihydrospiro[cyclopropane-1,3′-pyrrolo[3,2-c]pyridin]-6′-yl)acetamide] | 10 to 100 | ≤ 10
17 | COCCCc1cc(N2CC3(CC3)c3cnc(NC(C)=O)cc32)nc(C(C)(F)F)n1 [Example 326, N-(1′-(2-(1,1-difluoroethyl)-6-(3-methoxypropyl)pyrimidin-4-yl)-1′,2′-dihydrospiro[cyclopropane-1,3′-pyrrolo[3,2-c]pyridin]-6′-yl)acetamide] | 10 to 100 | ≤ 10
18 | CC(=O)Nc1cc2c(cn1)C1(CC1)CN2c1cc(CCC(C)(C)O)nc(C(C)(F)F)n1 [Example 327, N-(1′-(2-(1,1-difluoroethyl)-6-(3-hydroxy-3-methylbutyl)pyrimidin-4-yl)-1′,2′-dihydrospiro[cyclopropane-1,3′-pyrrolo[3,2-c]pyridin]-6′-yl)acetamide] | 10 to 100 | ≤ 10
19 | CCCCCc1cc(N2CC3(CC3)c3cnc(NC(C)=O)cc32)nc(C(C)(F)F)n1 [Example 328, N-(1′-(2-(1,1-difluoroethyl)-6-pentylpyrimidin-4-yl)-1′,2′-dihydrospiro[cyclopropane-1,3′-pyrrolo[3,2-c]pyridin]-6′-yl)acetamide] | 10 to 100 | ≤ 10
20 | CCO/C=C\c1cc(N2CC3(CC3)c3cnc(NC(C)=O)cc32)nc(C(C)(F)F)n1 [Example 329, (Z)-N-(1′-(2-(1,1-difluoroethyl)-6-(2-ethoxyvinyl)pyrimidin-4-yl)-1′,2′-dihydrospiro[cyclopropane-1,3′-pyrrolo[3,2-c]pyridin]-6′-yl)acetamide] | 10 to 100 | ≤ 10
21 | CCOCCc1cc(N2CC3(CC3)c3cnc(NC(C)=O)cc32)nc(C(C)(F)F)n1 [Example 330, N-(1′-(2-(1,1-difluoroethyl)-6-(2-ethoxyethyl)pyrimidin-4-yl)-1′,2′-dihydrospiro[cyclopropane-1,3′-pyrrolo[3,2-c]pyridin]-6′-yl)acetamide trifluoroacetate] | 10 to 100 | ≤ 10
22 | CC(=O)Nc1cc2c(cn1)C1(CC1)CN2c1nc(C)cc(F)n1 [Example 331, N-(1′-(4-fluoro-6-methylpyrimidin-2-yl)-1′,2′-dihydrospiro[cyclopropane-1,3′-pyrrolo[3,2-c]pyridin]-6′-yl)acetamide trifluoroacetate] | ≥ 1000 | 100 to 1000
23 | CC(=O)Nc1cc2c(cn1)C1(CC1)CN2c1cc(C)nc(F)n1 [Example 332, N-(1′-(2-fluoro-6-methylpyrimidin-4-yl)-1′,2′-dihydrospiro[cyclopropane-1,3′-pyrrolo[3,2-c]pyridin]-6′-yl)acetamide trifluoroacetate] | ≥ 1000 | 100 to 1000
24 | CC(=O)Nc1cc2c(cn1)C1(CC1)CN2c1cc(C)cc(OCC(F)(F)F)n1 [Example 333, N-(1′-(4-methyl-6-(2,2,2-trifluoroethoxy)pyridin-2-yl)-1′,2′-dihydrospiro[cyclopropane-1,3′-pyrrolo[3,2-c]pyridin]-6′-yl)acetamide trifluoroacetate] | ≥ 1000 | 100 to 1000
25 | CC(=O)Nc1cc2c(cn1)C1(CC1)CN2c1cc(C)cc(OC(C)C)n1 [Example 334, N-(1′-(6-isopropoxy-4-methylpyridin-2-yl)-1′,2′-dihydrospiro[cyclopropane-1,3′-pyrrolo[3,2-c]pyridin]-6′-yl)acetamide trifluoroacetate] | ≥ 1000 | 10 to 100
26 | CCOc1cc(C)cc(N2CC3(CC3)c3cnc(NC(C)=O)cc32)n1 [Example 335, N-(1′-(6-ethoxy-4-methylpyridin-2-yl)-1′,2′-dihydrospiro[cyclopropane-1,3′-pyrrolo[3,2-c]pyridin]-6′-yl)acetamide trifluoroacetate] | ≥ 1000 | 10 to 100
27 | COC(C)(C)COc1cc(C)cc(N2CC3(CC3)c3cnc(NC(C)=O)cc32)n1 [Example 336, N-(1′-(6-(2-methoxy-2-methylpropoxy)-4-methylpyridin-2-yl)-1′,2′-dihydrospiro[cyclopropane-1,3′-pyrrolo[3,2-c]pyridin]-6′-yl)acetamide trifluoroacetate] | ≥ 1000 | 100 to 1000
